The record followed here is patent US11047861B2, “Cellular assays with a molecular endpoint measured by SAMDI mass spectrometry” (NORTHWESTERN UNIVERSITY, priority 2015, dated 2021).

Assay [1] has as its system protein tyrosine phosphatase (PTP). Briefly: TCAL-SAMDI assay of PTP activity, inhibitors applied to cells cultured on the monolayer. The format is cell-based. The protocol:
HeLa cells and MDA-MB-231 cells were obtained from ATCC and cultured in αMEM (for HeLa cells) or high-glucose DMEM (for MDA-MB-231 cells) medium supplemented with 10% fetal bovine serum, glutamax, penicillin and streptomycin. All cells were cultured in a humidified incubator at 37° C. and CO2. Cells were trypsinized and suspended in media, and the average number of cells per μL was counted using a hemocytometer and Countess automated cell counter (Life Technologies), and cell concentrations were adjusted to seed the desired number of cells per spot in 3 μL media. Cells were cultured on the monolayers presenting RGD and peptide substrates on steel plates or glass slides for two hours under standard growth conditions. For PTP activity assays, cells were cultured for two hours before addition of inhibitors, if any. […] A 30 mg/mL solution of 2,4,6-trihydroxyacetophenone in acetone was delivered to each spot on the array and the surfaces were analyzed using an AB Sciex 5800 MALDI TOF/TOF instrument in positive reflector mode. The area under the curves for the [M+H]^+ peaks of disulfides was measured with the Data Explorer software (AB Sciex). […]
MDA-MB-231 cells were seeded at 75 cells per spot on monolayers presenting phosphatase peptide substrates and cyclic RGD as described above. […] IC50 values and curves were determined using GraphPad prism software.

For assay [2] the test system is unchanged. Briefly: SAMDI assay of PTP activity in cell lysate treated with inhibitor and applied to the monolayer. Format: biochemical. The settings on record: treatment of MDA-MB-231 cell lysate (rather than cells), read-out: PTP inhibition, IC50. The protocol:
MDA-MB-231 cells were lysed using the lysis buffer containing protease inhibitor described above to achieve the equivalent of 75 cells per 1.5 μL, after mixing with inhibitor solutions. Inhibitor solutions in lysis buffer at concentrations ranging from 0 to 640 μM were added to the lysate and 1.5 μL of the mixture was spotted on monolayers presenting cyclic RGD and phosphatase substrate. The reaction was carried out for 1 hour at 37° C. in a humidified chamber. To evaluate dose-response inhibition under standard culture conditions, MDA-MB-231 cells were plated on a 96-well plate at a density of 6,400 cells per well and cultured for two hours. Culture medium containing inhibitors at final concentrations ranging from 0 to 300 μM and 1% DMSO were delivered to each well and culture proceeded for another two hours. The mixture containing media and inhibitor was removed from each well and centrifuged. Lysis buffer containing protease inhibitor was applied to each well in the plate and incubated for 10 minutes at room temperature. The lysate was collected and added to the corresponding cell pellet for each inhibitor concentration sample. […] Protein concentrations were measured using a BCA assay (Santa Cruz Biotechnology), following manufacturer instructions. […] IC50 values and curves were determined using GraphPad prism software.

Molecules are shown by their SMILES.

In general, IC50 refers to the concentration at which inhibition is half-maximal.

Consider `O=C1C(=NNc2ccc(S(=O)(=O)O)cc2)C(c2ccc([N+](=O)[O-])cc2)=NN1c1ccccc1` [PHPS1], for which, in assay [1] (treatment of cells, inhibitor concentration up to 160 μM), the PTP inhibition entry was “did not show PTP inhibition”. Moreover, the IC50 in assay [2] came to 75 µM.

For `O=C(CBr)c1ccc(O)cc1` [PTPI-I], the IC50 in assay [1] (treatment of cultured MDA-MB-231 cells on monolayer for two hours, then lysis in place, read-out: inhibition of PTP activity, IC50) was 14 µM; in assay [2], 83 µM.
